According to ChEMBL document CHEMBL1909046, “DrugMatrix in vitro pharmacology data”:

What was measured:
[1] = biological target: T1, Type-2 angiotensin II receptor (Homo sapiens, UniProt P50052); assay type: cell-based; conditions: cho-k1; also: in other assays of this panel Not Active means under 50% inhibition at 10 µM
T1 sequence (P50052 whole entry): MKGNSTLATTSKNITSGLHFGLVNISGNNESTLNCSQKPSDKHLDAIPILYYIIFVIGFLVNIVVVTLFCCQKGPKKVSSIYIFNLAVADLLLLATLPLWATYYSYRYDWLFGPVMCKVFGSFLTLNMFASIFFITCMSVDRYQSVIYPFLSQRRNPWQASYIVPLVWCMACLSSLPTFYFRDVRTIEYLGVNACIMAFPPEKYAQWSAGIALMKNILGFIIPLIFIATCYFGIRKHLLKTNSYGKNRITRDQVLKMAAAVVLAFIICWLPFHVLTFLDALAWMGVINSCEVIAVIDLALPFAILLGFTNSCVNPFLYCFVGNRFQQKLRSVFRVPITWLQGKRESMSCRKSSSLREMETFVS

[2] = DRUGMATRIX: Atrial Natriuretic Factor (ANF) radioligand binding (ligand: [125I] ANF (rat)); assay type: cell membranes, Cavia porcellus, Dunkin-Hartley, Adrenal gland, Membrane; conditions: Not Active = under 50% inhibition at 10 µM
[3] = biological target: T2, Angiotensin-converting enzyme (Oryctolagus cuniculus, UniProt P12822); assay: biochemical; assay type: tissue-based, Lung;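 also: enzymatic inhibition of angiotensin-converting enzyme measured with FAPGG as the substrate; in other assays of this panel Not Active means under 50% inhibition at 10 µM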
T2 sequence (P12822 whole entry): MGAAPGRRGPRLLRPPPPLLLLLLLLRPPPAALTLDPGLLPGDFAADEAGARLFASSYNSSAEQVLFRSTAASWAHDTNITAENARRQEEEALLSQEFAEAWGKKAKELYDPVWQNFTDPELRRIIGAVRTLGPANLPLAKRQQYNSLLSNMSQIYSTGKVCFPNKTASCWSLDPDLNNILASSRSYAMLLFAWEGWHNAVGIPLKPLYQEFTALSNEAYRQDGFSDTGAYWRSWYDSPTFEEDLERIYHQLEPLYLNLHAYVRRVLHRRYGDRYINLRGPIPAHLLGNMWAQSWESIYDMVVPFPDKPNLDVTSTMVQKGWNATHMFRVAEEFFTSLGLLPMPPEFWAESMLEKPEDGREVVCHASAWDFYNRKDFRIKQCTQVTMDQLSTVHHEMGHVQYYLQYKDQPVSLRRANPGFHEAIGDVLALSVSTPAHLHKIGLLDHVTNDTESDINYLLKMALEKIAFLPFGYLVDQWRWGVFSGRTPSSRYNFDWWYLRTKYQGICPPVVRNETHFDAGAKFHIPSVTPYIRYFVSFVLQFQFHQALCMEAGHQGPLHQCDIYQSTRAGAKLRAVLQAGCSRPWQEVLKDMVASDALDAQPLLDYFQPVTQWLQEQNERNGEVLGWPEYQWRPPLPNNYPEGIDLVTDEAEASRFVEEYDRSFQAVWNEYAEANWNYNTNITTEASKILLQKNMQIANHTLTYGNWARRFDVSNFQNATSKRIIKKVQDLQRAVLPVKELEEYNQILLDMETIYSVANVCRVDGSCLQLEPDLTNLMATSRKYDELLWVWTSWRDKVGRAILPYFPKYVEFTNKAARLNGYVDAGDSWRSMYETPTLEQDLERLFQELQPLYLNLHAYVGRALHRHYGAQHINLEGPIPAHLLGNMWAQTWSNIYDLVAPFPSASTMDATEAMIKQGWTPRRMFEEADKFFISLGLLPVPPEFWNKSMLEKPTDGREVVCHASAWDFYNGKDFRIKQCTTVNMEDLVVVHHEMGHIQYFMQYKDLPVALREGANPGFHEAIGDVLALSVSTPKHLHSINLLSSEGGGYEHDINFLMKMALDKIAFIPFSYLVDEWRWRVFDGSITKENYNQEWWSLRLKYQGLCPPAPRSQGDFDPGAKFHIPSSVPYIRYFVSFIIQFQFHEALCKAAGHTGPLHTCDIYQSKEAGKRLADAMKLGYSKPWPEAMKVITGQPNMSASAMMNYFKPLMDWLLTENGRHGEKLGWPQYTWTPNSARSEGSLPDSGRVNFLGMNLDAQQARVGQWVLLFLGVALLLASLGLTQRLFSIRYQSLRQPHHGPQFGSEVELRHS

[4] = biological target: Beta-2 adrenergic receptor (Homo sapiens, UniProt P07550); assay: DRUGMATRIX: Adrenergic beta2 radioligand binding (ligand: [3H] CGP-12177); assay type: cell membranes, CHO, Membrane; conditions: cho; Not Active = under 50% inhibition at 10 µM
Estrogen receptor = biological target: T3, Estrogen receptor (Homo sapiens, UniProt P03372); conditions: sf9; also: in other assays of this panel Not Active means under 50% inhibition at 10 µM
T3 sequence (P03372 whole entry): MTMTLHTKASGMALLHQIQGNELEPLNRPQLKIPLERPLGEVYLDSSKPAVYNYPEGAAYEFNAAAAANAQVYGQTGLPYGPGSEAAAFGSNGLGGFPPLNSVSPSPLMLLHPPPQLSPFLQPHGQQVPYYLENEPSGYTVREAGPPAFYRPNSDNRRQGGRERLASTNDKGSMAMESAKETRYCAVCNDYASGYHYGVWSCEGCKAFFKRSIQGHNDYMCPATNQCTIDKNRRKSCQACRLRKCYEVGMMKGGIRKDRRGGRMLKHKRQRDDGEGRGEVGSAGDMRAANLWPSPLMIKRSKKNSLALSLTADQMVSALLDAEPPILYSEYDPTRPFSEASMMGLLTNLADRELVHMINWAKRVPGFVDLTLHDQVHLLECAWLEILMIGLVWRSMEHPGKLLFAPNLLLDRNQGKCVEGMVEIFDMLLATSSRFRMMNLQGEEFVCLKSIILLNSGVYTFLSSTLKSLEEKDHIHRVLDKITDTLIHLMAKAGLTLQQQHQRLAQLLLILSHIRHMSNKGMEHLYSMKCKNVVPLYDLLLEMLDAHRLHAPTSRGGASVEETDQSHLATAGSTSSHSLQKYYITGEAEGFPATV

Calcitonin receptor = biological target: T4, Calcitonin receptor (Homo sapiens, UniProt P30988); assay type: cell membranes, Membrane; conditions: t47d; also: in other assays of this panel Not Active means under 50% inhibition at 10 µM
T4 sequence (P30988 whole entry): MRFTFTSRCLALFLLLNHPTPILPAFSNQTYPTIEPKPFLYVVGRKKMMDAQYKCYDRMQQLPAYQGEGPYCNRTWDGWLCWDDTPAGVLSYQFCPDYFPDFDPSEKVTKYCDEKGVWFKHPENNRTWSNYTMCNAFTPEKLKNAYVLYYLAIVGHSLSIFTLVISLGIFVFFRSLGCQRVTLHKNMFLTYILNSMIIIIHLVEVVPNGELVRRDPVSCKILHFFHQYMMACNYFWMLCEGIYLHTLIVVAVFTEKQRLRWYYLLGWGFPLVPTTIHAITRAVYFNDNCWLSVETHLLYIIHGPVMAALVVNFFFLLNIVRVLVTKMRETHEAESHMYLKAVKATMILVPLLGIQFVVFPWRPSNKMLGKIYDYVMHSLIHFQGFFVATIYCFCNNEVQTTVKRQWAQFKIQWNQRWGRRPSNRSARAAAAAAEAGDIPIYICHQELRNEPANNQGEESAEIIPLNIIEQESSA

Insulin receptor = Insulin receptor (Rattus norvegicus, UniProt P15127); assay type: cell membranes, Wistar, Liver, Membrane; also: in other assays of this panel Not Active means under 50% inhibition at 10 µM
Insulin receptor, sequence (P15127 27-759 limits assumed): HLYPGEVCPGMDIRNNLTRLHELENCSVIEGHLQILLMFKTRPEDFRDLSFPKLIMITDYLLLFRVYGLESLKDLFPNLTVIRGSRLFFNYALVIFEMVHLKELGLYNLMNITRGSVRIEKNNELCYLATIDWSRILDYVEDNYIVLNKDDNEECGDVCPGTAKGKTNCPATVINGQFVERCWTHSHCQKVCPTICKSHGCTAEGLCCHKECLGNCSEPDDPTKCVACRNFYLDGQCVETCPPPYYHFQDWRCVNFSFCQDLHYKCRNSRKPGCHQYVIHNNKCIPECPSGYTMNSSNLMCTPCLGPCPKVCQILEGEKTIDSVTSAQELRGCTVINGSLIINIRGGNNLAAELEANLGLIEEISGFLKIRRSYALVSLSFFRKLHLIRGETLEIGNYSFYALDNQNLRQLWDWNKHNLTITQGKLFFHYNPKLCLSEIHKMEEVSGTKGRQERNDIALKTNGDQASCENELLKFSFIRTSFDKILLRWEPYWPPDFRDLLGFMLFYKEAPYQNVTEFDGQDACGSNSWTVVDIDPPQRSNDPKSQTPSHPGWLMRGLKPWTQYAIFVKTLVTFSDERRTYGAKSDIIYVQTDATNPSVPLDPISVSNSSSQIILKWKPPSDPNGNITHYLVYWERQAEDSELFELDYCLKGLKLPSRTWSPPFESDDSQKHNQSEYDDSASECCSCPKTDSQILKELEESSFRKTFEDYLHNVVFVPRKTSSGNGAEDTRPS
Insulin receptor, sequence (P15127 764-1383 limits assumed): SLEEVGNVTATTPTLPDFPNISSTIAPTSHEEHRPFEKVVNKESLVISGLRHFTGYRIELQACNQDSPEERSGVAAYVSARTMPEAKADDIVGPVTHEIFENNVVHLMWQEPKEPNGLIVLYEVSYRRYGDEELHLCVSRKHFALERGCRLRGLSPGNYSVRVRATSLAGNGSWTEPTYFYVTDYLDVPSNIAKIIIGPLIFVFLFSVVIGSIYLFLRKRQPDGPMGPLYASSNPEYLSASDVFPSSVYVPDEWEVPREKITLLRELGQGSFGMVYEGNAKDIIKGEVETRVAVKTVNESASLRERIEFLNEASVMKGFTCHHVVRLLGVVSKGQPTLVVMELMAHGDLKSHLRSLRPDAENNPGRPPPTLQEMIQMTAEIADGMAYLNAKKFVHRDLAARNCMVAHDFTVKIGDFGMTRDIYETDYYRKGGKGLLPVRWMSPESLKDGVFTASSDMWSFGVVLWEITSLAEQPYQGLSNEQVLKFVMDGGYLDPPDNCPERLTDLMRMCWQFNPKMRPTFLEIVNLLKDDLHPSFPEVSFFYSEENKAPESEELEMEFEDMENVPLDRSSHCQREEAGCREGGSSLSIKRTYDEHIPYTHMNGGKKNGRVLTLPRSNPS

Cc1cc(C(C)(C)C)c(O)c(C)c1CC1=NCCN1 [OXYMETAZOLINE]
Not Active: IC50 [1] | IC50 [2] | Ki [2] | IC50 [3] | IC50 [4] | IC50 (Estrogen receptor) | IC50 (Calcitonin receptor) | IC50 (Insulin receptor)

O=C1c2ccccc2C(=O)C1c1ccccc1 [PHENINDIONE]
Not Active: IC50 [1] | IC50 [2] | Ki [2] | IC50 [3] | IC50 [4] | IC50 (Estrogen receptor) | IC50 (Calcitonin receptor) | IC50 (Insulin receptor)

NC(N)=Nc1nc(CSCCC(N)=NS(N)(=O)=O)cs1 [FAMOTIDINE]
Not Active: IC50 [1] | IC50 [2] | Ki [2] | IC50 [3] | IC50 [4] | IC50 (Estrogen receptor) | IC50 (Calcitonin receptor) | IC50 (Insulin receptor)

CO[C@H]1O[C@@H]2O[C@@]3(C)CC[C@H]4[C@H](C)CC[C@@H]([C@H]1C)[C@@]24OO3
Not Active: IC50 [1] | IC50 [2] | Ki [2] | IC50 [3] | IC50 [4] | IC50 (Estrogen receptor) | IC50 (Calcitonin receptor) | IC50 (Insulin receptor)

CN(CCOc1ccc(C[C@H](Nc2ccccc2C(=O)c2ccccc2)C(=O)O)cc1)c1ccccn1
Not Active: IC50 [1] | IC50 [2] | Ki [2] | IC50 [3] | IC50 [4] | IC50 (Estrogen receptor) | IC50 (Calcitonin receptor) | IC50 (Insulin receptor)

c1ccc2sc(SSc3nc4ccccc4s3)nc2c1 [BENZOTHIAZYL DISULFIDE]
Not Active: IC50 [1] | IC50 [2] | Ki [2] | IC50 [3] | IC50 [4] | IC50 (Estrogen receptor) | IC50 (Calcitonin receptor) | IC50 (Insulin receptor)

NS(=O)(=O)c1cc(C(=O)O)c(NCc2ccco2)cc1Cl [FUROSEMIDE]
Not Active: IC50 [1] | IC50 [2] | Ki [2] | IC50 [3] | IC50 [4] | IC50 (Estrogen receptor) | IC50 (Calcitonin receptor) | IC50 (Insulin receptor)

COc1ccc(C[C@H](N)C(=O)N[C@H]2[C@@H](O)[C@H](n3cnc4c(N(C)C)ncnc43)O[C@@H]2CO)cc1 [PUROMYCIN]
Not Active: IC50 [1] | IC50 [2] | Ki [2] | IC50 [3] | IC50 [4] | IC50 (Estrogen receptor) | IC50 (Calcitonin receptor) | IC50 (Insulin receptor)

O=c1[nH]c2ccccc2c2ccccc12
Not Active: IC50 [1] | IC50 [2] | Ki [2] | IC50 [3] | IC50 [4] | IC50 (Estrogen receptor) | IC50 (Calcitonin receptor) | IC50 (Insulin receptor)

COPPER(II) OXIDE
Not Active: IC50 [1] | Ki [1] | IC50 [2] | Ki [2] | IC50 [3] | Ki [3] | IC50 [4] | Ki [4] | IC50 (Estrogen receptor) | Ki (Estrogen receptor) | IC50 (Calcitonin receptor) | Ki (Calcitonin receptor) | IC50 (Insulin receptor) | Ki (Insulin receptor)

CC12CCC(CC1)C(C)(C)O2 [EUCALYPTOL]
Not Active: IC50 [1] | IC50 [2] | Ki [2] | IC50 [3] | IC50 [4] | IC50 (Estrogen receptor) | IC50 (Calcitonin receptor) | IC50 (Insulin receptor)
